This note sets out measurements from PubChem BioAssay (NCI).

Common to all, as to test: growth of human tumour cells (NCI), 48 h
Assay [1] has as its system KM12 colon.
The test system of assay [2] is SK-OV-3 ovarian.
The test system of assay [3] is SW-620 colon.
For assay [4], the system named is A549 NSCLC.
Assay [5] relates to NCI-H23 lung.
Assay [6] concerns SN12C renal.
The subject of assay [7] is HCT-15 colon.
The test system of assay [8] is SF-539 CNS.
The test system of assay [9] is NCI-H522 lung.
The test system of assay [10] is SNB-19 CNS.

Where “and” joins values, the source holds several entries; their conditions need not be identical. Equal entries are not always repeated.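 Exposure lasted 48 hours, with cells grown in 96-well plates and compounds tested at five concentrations. GI50 = concentration required for 50% inhibition of growth. At the TGI there is no net growth.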 A value given as a limit tells only on which side of the number the result lay.

With `COc1cc2c3c(n(C)c(=O)c2cc1OC)-c1cc2c(cc1/C3=C\C(N)CN)OCO2` (stereo not drawn), the GI50 is 2.39 µM in [1]; 2.45 µM in [2]; 0.689 µM in assay [3]; 3.5 µM in [4]; 1.84 µM in assay [5]; 1.81 µM in assay [6]. The GI50 was 2.16 µM in assay [7], 1.39 µM in assay [8], 0.394 µM in [9] and 1.36 µM in assay [10]. The TGI in assay [1] is 28.3 µM; in assay [2], 13.1 µM; in [3] it was 11.9 µM; in assay [4] it was 21.1 µM; in [5], 5.58 µM; in assay [6], above 26.4 µM. In addition, the figures for the TGI in assay [7], in [8] and in assay [10] were 16.6 µM, 4.49 µM and above 49.3 µM, respectively.

On to `CCN1C(=O)N(CC)C2C1NN=c1s/c(=C\c3cc4ccccc4[nH]3)c(=O)n12` (stereo not drawn), for which the GI50 in [1] is below 0.012 µM; in [2], 0.0246 µM; in assay [3], 0.0277 µM; in assay [4], 0.0433 µM; in [5], 0.0445 µM; in [6], 0.0241 µM. Further, the GI50 in [7] is 0.0324 µM; in assay [8] it was below 0.01 µM; in [9] it was below 0.0164 µM; in [10] it was 0.055 µM. The TGI in [1] is above 58.6 µM; in assay [2], 17.3 µM; in assay [3], above 100 µM; in assay [4] it was above 100 µM; in assay [5], above 76.9 µM; in assay [6], 14.6 µM. Further, the figures for the TGI in assay [7], in assay [9] and in assay [10] were above 100 µM, 1.02 µM and 15.8 µM, respectively.

For `CCCOC(=O)CCn1c(SC)nc2[nH]cc(-c3ccccc3)c2c1=O`, the GI50 in assay [1] was 18.7 µM; in [2], 38.3 µM; in assay [3], 28.3 µM; in assay [4], 15.8 µM; in assay [5], 8.34 µM; in assay [6], 20.1 µM. Besides, the GI50 is 37.7 µM in [7], 24.9 µM in [8], 11 µM in assay [9] and 31.7 µM in assay [10]. Further, the TGI was 53.8 µM in assay [1]; above 100 µM in [2]; above 100 µM in assay [3]; 65.8 µM in assay [4]; 43 µM in assay [5]; above 100 µM in assay [6]. In addition, the TGI in assay [7] was above 100 µM; in assay [8] it was above 100 µM; in [9] it was 32.5 µM; in assay [10], above 100 µM.

For `C=C1CCc2occ(C)c2C2C1C1=C(CC(C)C1=O)C1OC12C` (stereo not drawn), the TGI in assay [1], in assay [2], in [3], in [4], in [5] and in [6] was above 100 µM in each case. Further, the TGI in assay [7], in [8], in assay [9] and in [10] was above 100 µM throughout.

In the case of `c1ccc(P(CCP(CCP(c2ccccc2)c2ccccc2)c2ccccc2)CCP(c2ccccc2)c2ccccc2)cc1` (stereo not drawn), the GI50 was > 10 µM and 1.39 µM in assay [1]; > 10 µM and 3.94 µM in [6]; above 10 µM in [10]. The TGI in [1], in assay [2], in assay [3], in assay [4], in assay [5] and in [6] was above 10 µM throughout. Further, the TGI was above 10 µM in assay [7]; > 10 µM and 9.84 µM in assay [8]; 5.13 µM in assay [9]; above 10 µM in assay [10].

As for `CS/C(C)=N/OC(=O)NCCCCNc1ccc(N=[N+]=[N-])cc1`, the TGI in assay [1], in [2], in assay [3], in [4], in assay [5] and in [6] was above 100 µM each time. Moreover, the TGI in assay [7] was above 100 µM; in [8], above 100 µM; in [9], 23.7 µM; in [10], above 100 µM.

In the case of `Nc1n[nH]c2cccc(C#Cc3cccc(C(=O)Nc4cc(CN5CCOCC5)cc(C(F)(F)F)c4)c3)c12`, the GI50 is 3.43 µM in assay [1]; 15.5 µM in assay [2]; 4.59 µM in assay [3]; 5.32 µM in assay [4]; 3.56 µM in assay [5]; 3.71 µM in assay [6]. Further, the GI50 was 3.57 µM in assay [7], 2.4 µM in assay [8], 3.62 µM in assay [9] and 5.23 µM in assay [10]. In addition, the TGI came out at 14.7 µM in assay [1]; 34.8 µM in assay [2]; 24.3 µM in [3]; 19.7 µM in [4]; 18.8 µM in [5]; 16.4 µM in assay [6]. For the same molecule, the TGI in assay [7] stood at 15.2 µM; in [8] it was 12 µM; in assay [9], 16.2 µM; in assay [10], 20.3 µM.

Turning to `CCN(CC)CC(C(=O)Nc1c(C)cccc1C)/C(C)=N\NC(=O)c1ccncc1` (stereo not drawn), the TGI in assay [1], in assay [2], in [4], in assay [5], in assay [6] and in [7] was above 100 µM in each case. Also, the TGI in assay [8], in assay [9] and in assay [10] was above 100 µM throughout.

In the case of `COc1ccc(-c2nn(-c3cccc(Cl)c3)cc2-c2cc(-c3ccccc3)nc(N)n2)cc1`, the GI50 was 2.05 µM in assay [1]; 13.5 µM in assay [2]; 2.7 µM in assay [4]; 2.83 µM in assay [5]; 1.9 µM in [6]; 3.6 µM in [7]. Moreover, the GI50 is 11 µM in assay [8], 1.88 µM in [9] and 12.7 µM in [10]. In addition, the TGI in assay [1] is 4.39 µM; in [2], 29.2 µM; in assay [4], 13.7 µM; in assay [5], 10.4 µM; in [6] it was 5.02 µM; in assay [7], 16.1 µM. Also, the TGI in [8] was 27.7 µM; in assay [9] it was 3.53 µM; in [10] it was 43.8 µM.
